We go through two compounds from patent EP4620304A1, “FORMULATION COMPRISING CLOMAZONE AND DIURON” (Adama Agan Ltd., priority 2024, dated 2025).

Broadly, the solubility is the dissolved amount per volume that the medium holds.

Each structure is given as a SMILES string. In brackets after ≈: the same amount, converted by molar mass. Where two headings read alike, the source gives them in different places.

This data set can be described thus: Solubility in clomazone or propylene glycol by visual verification (turbidity). The settings on record: organic solvent or mixture, thermodynamic from solid. The format is physicochemical. As to the method: All solubilities mentioned in the present document were measured through visual verification. In a known quantity of clomazone or propylene glycol at a desired temperature, the solute (e.g. hexazinone or diuron) was added at a rate of 0.2g/5min.

Consider `CN(C)C(=O)Nc1ccc(Cl)c(Cl)c1` [Diuron], for which the solubility (23 °C, 23 °C, read-out: Solubility of Diuron in Clomazone) was 28 mg/mL (≈ 120 mM); the solubility (40 °C, 40 °C, read-out: Solubility of Diuron in Clomazone) was found to be 36 mg/mL (≈ 154 mM); the solubility (54 °C, 54 °C, read-out: Solubility of Diuron in Clomazone) is 61 mg/mL (≈ 262 mM).

Turning to `CN(C)c1nc(=O)n(C2CCCCC2)c(=O)n1C` [Hexazinone], the solubility (23 °C, Solubility of Hexazinone in Clomazone) was 53 mg/mL (≈ 210 mM); the solubility (23 °C, Solubility of Hexazinone in Propileneglycol) worked out at 510 mg/mL (≈ 2020 mM); the solubility (40 °C, Solubility of Hexazinone in Clomazone) was 62 mg/mL (≈ 246 mM); the solubility (40 °C, Solubility of Hexazinone in Propileneglycol) amounted to 580 mg/mL (≈ 2300 mM); the solubility (54 °C, Solubility of Hexazinone in Clomazone) was determined as 73 mg/mL (≈ 289 mM); the solubility (54 °C, Solubility of Hexazinone in Propileneglycol) worked out at 630 mg/mL (≈ 2500 mM).
